Among the data in PubChem BioAssay (NCI) are TGI and GI50 values, retold here.

Values joined by “and” are separate entries in the source; they are usually repeats but may differ in a detail not shown here. Equal entries are not always repeated.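 Cultured in 96-well plates, cells were exposed to test compound for 48 hours across five concentrations. GI50 is the concentration that inhibits growth by half. TGI marks complete inhibition of growth.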

Test in all cases: NCI tumour cell line growth inhibition, 48 h
Assay [1] concerns RXF 393 renal.
In assay [2] the test system is NCI-H460 lung.
Assay [3] concerns MALME-3M melanoma.
Assay [4] deals with OVCAR-8 ovarian.
In assay [5] the test system is MCF7 breast.
The subject of assay [6] is 786-0 renal.
Assay [7] relates to K-562 leukemia.
Assay [8] concerns UACC-257 melanoma.
In assay [9] the test system is NCI-H23 lung.
Assay [10] deals with MDA-MB-435.

For the molecule `Cc1c[n+](=O)c2ccccc2n1[O-]`, the TGI in assay [1], in assay [2], in assay [3], in [4], in [5] and in assay [6] was above 100 µM each time. Further, the TGI in assay [7], in [8], in [9] and in [10] was above 100 µM in each case.

As for `CN(/N=C/c1cccc2cccnc12)c1ccc([N+](=O)[O-])cc1[N+](=O)[O-]`, the TGI in assay [1] was 40.9 µM; in [2], above 100 µM; in assay [3] it was 70.2 µM; in [4], above 100 µM; in assay [5], above 100 µM; in assay [6] it was 35.8 µM. The TGI in [7] is above 100 µM; in [8] it was above 100 µM; in assay [9], 50.1 µM; in [10] it was above 100 µM.

Consider `CC(=O)NC1C(OC[C@@H](CC(=O)N[C@@H](CC(=O)O)CC(=O)N[C@H](CC(=O)N[C@@H](CCCN)CC(=O)N[C@@H](CCCN)CC(=O)N[C@H](CC(N)=O)C(C)C)C(C)C)NC(=O)C[C@@H](N)C(C)C)OC(CO)C(O)C1O` (stereo not given in full), for which the GI50 in [1], in assay [2], in assay [3], in assay [4], in assay [5] and in assay [6] was above 100 µM throughout. Besides, the GI50 in assay [7], in [8], in [9] and in [10] was above 100 µM each time. Besides, the TGI in [1], in [2], in assay [3], in [4], in assay [5] and in [6] was above 100 µM each time. Also, the TGI in assay [7], in assay [8], in [9] and in [10] was above 100 µM in each case.

For the molecule `C=C(C)C(O)CCC1(C)C=Cc2c(c(C)cc3c2[nH]c2ccccc23)O1` (stereo not given), the GI50 is 2.78 µM in [1]; 2.33 µM in [2]; 10.7 µM in assay [4]; 3.88 µM in [6]; 2.78 µM in assay [7]. The TGI was 25 µM and 8.51 µM in assay [1]; 10.6 µM and 5.86 µM in assay [2]; 25 µM and 24.7 µM in assay [3]; 25 µM and 22.9 µM in [4]; 26.4 µM in assay [5]; 10.8 µM and 14.2 µM in assay [6]. Further, the TGI in assay [7] was 24.6 µM and 7.13 µM; in assay [8], 20.5 µM; in [9], 23.3 µM; in assay [10], 21.3 µM.

For the molecule `ClCc1cccc2c(CCl)cccc12`, the GI50 is 3.33 µM in assay [1]; 0.767 µM in [2]; 2.37 µM in assay [3]; 4.29 µM in [4]; 0.871 µM in assay [5]; 3.93 µM in [6]. The GI50 was 10.5 µM in assay [7], 2.6 µM in assay [8], 5.2 µM in [9] and 4.28 µM in assay [10]. Also, the TGI turned out to be 18 µM in assay [1]; 2.65 µM in [2]; 25.5 µM in [3]; 33.6 µM in assay [4]; 7.54 µM in [5]; 18.9 µM in [6]. Besides, the TGI in [7] is above 100 µM; in [8] it was 12.6 µM; in [9] it was 22.8 µM; in assay [10], 18.7 µM.

`O=C(Nc1ccc([As](=O)(O)O)cc1)Nc1cccc(Cl)c1Cl`: the TGI was 67.7 µM in [1]; above 100 µM in [2]; above 100 µM in assay [3]; above 100 µM in [4]; above 100 µM in assay [5]; above 100 µM in [6]. The TGI in [7], in assay [8], in [9] and in assay [10] was above 100 µM each time.

Regarding `O=C(Oc1cccc(F)c1OC(=O)c1cccc(O)c1)c1cccc(O)c1`, the GI50 in [1] was 12.1 µM; in assay [2], 11.6 µM; in assay [3], above 100 µM; in assay [4] it was 22.8 µM; in [5], 34.9 µM; in [6] it was 37 µM. For the same molecule, the GI50 in [7] is 38 µM; in assay [8], 39.8 µM; in [9], 26.9 µM; in [10], 66.7 µM. Besides, the TGI in assay [1] is 73.6 µM; in assay [2], above 100 µM; in assay [3], above 100 µM; in assay [4] it was above 100 µM; in assay [5], above 100 µM; in [6] it was above 100 µM. The TGI in [7], in assay [8], in assay [9] and in assay [10] was above 100 µM in each case.

As to `O=C(O)CN(CC(=O)O)Cc1cc(C#Cc2ccc(C#Cc3ccccc3)cc2)cc(CN(CC(=O)O)CC(=O)O)n1`, the TGI in assay [1] is above 62.7 µM; in assay [2], 66.2 µM; in assay [3], above 85.5 µM; in assay [4], above 60.6 µM; in [5], 41.8 µM; in [6], 47.1 µM. In addition, the TGI in [7] is above 67.5 µM; in assay [8], above 89.1 µM; in assay [9] it was above 89.7 µM; in [10] it was above 100 µM.

In the case of `CCOC(=O)Nc1ccc2c(c1)/C(=N\NC(N)=S)c1ccccc1-2`, the GI50 is 1.93 µM in [1]; 4.33 µM in [2]; 9.23 µM in assay [3]; 3.77 µM in assay [4]; 3.15 µM in assay [5]; 3.06 µM in assay [6]. For the same molecule, the GI50 in assay [7] was 3.94 µM; in assay [8], 3.55 µM; in assay [9], 2.95 µM; in assay [10] it was 3.58 µM. Moreover, the TGI in assay [1] was 4.6 µM; in assay [2] it was 23.1 µM; in [3], 33.4 µM; in assay [4], 13.8 µM; in assay [5] it was 23.8 µM; in assay [6], 9.08 µM. In addition, the TGI is above 44.8 µM in assay [7], 12.7 µM in assay [8], 12.6 µM in assay [9] and 18.3 µM in assay [10].

Take `COc1ccc(C(=S)N2CCN(c3cccc(C)c3)CC2)cc1OC`: the GI50 is 6.05 µM in assay [1]; 3.38 µM in assay [2]; 3.34 µM in [3]; 8.47 µM in assay [4]; 3.06 µM in assay [5]; 7.54 µM in assay [6]. For the same molecule, the GI50 in assay [7] was 1.2 µM; in [8] it was 55.4 µM; in [9], 9.08 µM; in [10], 1.09 µM. In addition, the TGI in [1] is above 100 µM; in [2], above 100 µM; in assay [3] it was 84.4 µM; in assay [4] it was above 100 µM; in [5], above 100 µM; in assay [6], above 100 µM. In addition, the TGI is above 100 µM in [7], above 100 µM in assay [8], above 100 µM in assay [9] and 4.04 µM in [10].
